ChEMBL document CHEMBL3112568, “Synthesis, antifungal activities and molecular docking studies of novel 2-(2,4-difluorophenyl)-2-hydroxy-3-(1H-1,2,4-triazol-1-yl)propyl dithiocarbamates” (2014)
Converted amounts (≈) assume the structure as drawn.

Legend:
Assay type in all cases: functional
Nannizzia gypsea = assay: Antifungal activity against Microsporum gypseum by micro-broth dilution method
Trichophyton rubrum = assay: Antifungal activity against Trichophyton rubrum by micro-broth dilution method
Nakaseomyces glabratus = assay: Antifungal activity against Candida glabrata by micro-broth dilution method
Aspergillus fumigatus = assay: Antifungal activity against Aspergillus fumigatus by micro-broth dilution method
Candida parapsilosis = assay: Antifungal activity against Candida parapsilosis by micro-broth dilution method; conditions: Lodderomyces parapsilosis
Cryptococcus neoformans = assay: Antifungal activity against Cryptococcus neoformans after 72 hrs by micro-broth dilution method
Candida albicans [1] = assay: Antifungal activity against Candida albicans SC5314 after 24 hrs by micro-broth dilution method; conditions: SC5314, 24 h
Candida albicans [2] = assay: Antifungal activity against Candida albicans Y0109 after 24 hrs by micro-broth dilution method; conditions: Y0109, 24 h

Row | MIC80 (Nannizzia gypsea) | MIC80 (Trichophyton rubrum) | MIC80 (Nakaseomyces glabratus) | MIC80 (Aspergillus fumigatus) | MIC80 (Candida parapsilosis) | MIC80 (Cryptococcus neoformans) | MIC80 (Candida albicans [1]) | MIC80 (Candida albicans [2]) | Compound
1 | 2 µg/mL (≈ 4.08 µM) | 2 µg/mL (≈ 4.08 µM) | 0.25 µg/mL (≈ 0.511 µM) | 4 µg/mL (≈ 8.17 µM) | 1 µg/mL (≈ 2.04 µM) | 0.25 µg/mL (≈ 0.511 µM) | ≤ 0.125 µg/mL | ≤ 0.125 µg/mL | OC(CSC(=S)N1CCN(Cc2ccccc2)CC1)(Cn1cncn1)c1ccc(F)cc1F (racemic)
2 | 4 µg/mL (≈ 7.91 µM) | 1 µg/mL (≈ 1.98 µM) | 0.25 µg/mL (≈ 0.494 µM) | 16 µg/mL (≈ 31.6 µM) | 0.5 µg/mL (≈ 0.989 µM) | 0.25 µg/mL (≈ 0.494 µM) | ≤ 0.125 µg/mL | ≤ 0.125 µg/mL | COc1cccc(N2CCN(C(=S)SCC(O)(Cn3cncn3)c3ccc(F)cc3F)CC2)c1 (racemic)
3 | 4 µg/mL (≈ 7.84 µM) | 1 µg/mL (≈ 1.96 µM) | 0.25 µg/mL (≈ 0.49 µM) | 16 µg/mL (≈ 31.4 µM) | 0.5 µg/mL (≈ 0.98 µM) | ≤ 0.125 µg/mL | ≤ 0.125 µg/mL | ≤ 0.125 µg/mL | OC(CSC(=S)N1CCN(c2ccc(Cl)cc2)CC1)(Cn1cncn1)c1ccc(F)cc1F (racemic)
4 | 8 µg/mL (≈ 20.1 µM) | 8 µg/mL (≈ 20.1 µM) | ≤ 0.125 µg/mL | 16 µg/mL (≈ 40.2 µM) | 0.5 µg/mL (≈ 1.25 µM) | ≤ 0.125 µg/mL | ≤ 0.125 µg/mL | ≤ 0.125 µg/mL | OC(CSC(=S)N1CCCCC1)(Cn1cncn1)c1ccc(F)cc1F (racemic)
5 | 2 µg/mL (≈ 4.05 µM) | 1 µg/mL (≈ 2.03 µM) | 0.25 µg/mL (≈ 0.507 µM) | 16 µg/mL (≈ 32.4 µM) | 0.25 µg/mL (≈ 0.507 µM) | ≤ 0.125 µg/mL | 0.25 µg/mL (≈ 0.507 µM) | ≤ 0.125 µg/mL | OC(CSC(=S)N1CCN(c2ccc(F)cc2)CC1)(Cn1cncn1)c1ccc(F)cc1F (racemic)
6 | 2 µg/mL (≈ 3.68 µM) | 1 µg/mL (≈ 1.84 µM) | 0.25 µg/mL (≈ 0.46 µM) | 8 µg/mL (≈ 14.7 µM) | 0.5 µg/mL (≈ 0.92 µM) | 0.25 µg/mL (≈ 0.46 µM) | ≤ 0.125 µg/mL | ≤ 0.125 µg/mL | OC(CSC(=S)N1CCN(c2cccc(C(F)(F)F)c2)CC1)(Cn1cncn1)c1ccc(F)cc1F (racemic)
7 | 16 µg/mL (≈ 32.7 µM) | 2 µg/mL (≈ 4.08 µM) | 0.5 µg/mL (≈ 1.02 µM) | > 64 µg/mL | 1 µg/mL (≈ 2.04 µM) | 0.5 µg/mL (≈ 1.02 µM) | 0.25 µg/mL (≈ 0.511 µM) | ≤ 0.125 µg/mL | Cc1ccccc1N1CCN(C(=S)SCC(O)(Cn2cncn2)c2ccc(F)cc2F)CC1 (racemic)
8 | 4 µg/mL (≈ 8.1 µM) | 0.5 µg/mL (≈ 1.01 µM) | 0.25 µg/mL (≈ 0.507 µM) | 8 µg/mL (≈ 16.2 µM) | 0.5 µg/mL (≈ 1.01 µM) | ≤ 0.125 µg/mL | ≤ 0.125 µg/mL | ≤ 0.125 µg/mL | OC(CSC(=S)N1CCN(c2cccc(F)c2)CC1)(Cn1cncn1)c1ccc(F)cc1F (racemic)
9 | 32 µg/mL (≈ 77.6 µM) | 2 µg/mL (≈ 4.85 µM) | ≤ 0.125 µg/mL | 8 µg/mL (≈ 19.4 µM) | 1 µg/mL (≈ 2.42 µM) | 2 µg/mL (≈ 4.85 µM) | ≤ 0.125 µg/mL | ≤ 0.125 µg/mL | O=C1CCN(C(=S)SCC(O)(Cn2cncn2)c2ccc(F)cc2F)CC1 (racemic)

Second part, the compound before the results:

Row | Compound | MIC80 (Nannizzia gypsea) | MIC80 (Trichophyton rubrum) | MIC80 (Nakaseomyces glabratus) | MIC80 (Aspergillus fumigatus) | MIC80 (Candida parapsilosis) | MIC80 (Cryptococcus neoformans) | MIC80 (Candida albicans [1]) | MIC80 (Candida albicans [2])
10 | CCNC(=S)SCC(O)(Cn1cncn1)c1ccc(F)cc1F (racemic) | > 64 µg/mL | 4 µg/mL (≈ 11.2 µM) | 4 µg/mL (≈ 11.2 µM) | > 64 µg/mL | > 64 µg/mL | 64 µg/mL (≈ 179 µM) | 1 µg/mL (≈ 2.79 µM) | 1 µg/mL (≈ 2.79 µM)
11 | OCCN(CCO)C(=S)SCC(O)(Cn1cncn1)c1ccc(F)cc1F (racemic) | 1 µg/mL (≈ 2.39 µM) | 1 µg/mL (≈ 2.39 µM) | 0.25 µg/mL (≈ 0.597 µM) | > 64 µg/mL | > 64 µg/mL | 64 µg/mL (≈ 153 µM) | 8 µg/mL (≈ 19.1 µM) | 8 µg/mL (≈ 19.1 µM)
12 | CC(C)NC(=S)SCC(O)(Cn1cncn1)c1ccc(F)cc1F (racemic) | > 64 µg/mL | 64 µg/mL (≈ 172 µM) | 4 µg/mL (≈ 10.7 µM) | > 64 µg/mL | 1 µg/mL (≈ 2.68 µM) | 64 µg/mL (≈ 172 µM) | 2 µg/mL (≈ 5.37 µM) | 1 µg/mL (≈ 2.68 µM)
13 | CC(=O)N1CCN(c2ccc(OCC3COC(Cn4ccnc4)(c4ccc(Cl)cc4Cl)O3)cc2)CC1 (stereo unspecified) [KETOCONAZOLE] | 1 µg/mL (≈ 1.88 µM) | 0.125 µg/mL (≈ 0.235 µM) | 0.5 µg/mL (≈ 0.941 µM) | 4 µg/mL (≈ 7.53 µM) | 0.5 µg/mL (≈ 0.941 µM) | 0.25 µg/mL (≈ 0.47 µM) | ≤ 0.125 µg/mL | 0.25 µg/mL (≈ 0.47 µM)
14 | OC(CSC(=S)NC1CC1)(Cn1cncn1)c1ccc(F)cc1F (racemic) | > 64 µg/mL | 64 µg/mL (≈ 173 µM) | 8 µg/mL (≈ 21.6 µM) | > 64 µg/mL | 1 µg/mL (≈ 2.7 µM) | 64 µg/mL (≈ 173 µM) | 1 µg/mL (≈ 2.7 µM) | 1 µg/mL (≈ 2.7 µM)
15 | CCCNC(=S)SCC(O)(Cn1cncn1)c1ccc(F)cc1F (racemic) | > 64 µg/mL | 32 µg/mL (≈ 85.9 µM) | 2 µg/mL (≈ 5.37 µM) | > 64 µg/mL | > 64 µg/mL | 64 µg/mL (≈ 172 µM) | 0.25 µg/mL (≈ 0.671 µM) | 0.25 µg/mL (≈ 0.671 µM)
16 | OCCN(Cc1ccccc1)C(=S)SCC(O)(Cn1cncn1)c1ccc(F)cc1F (racemic) | 32 µg/mL (≈ 68.9 µM) | 2 µg/mL (≈ 4.31 µM) | ≤ 0.125 µg/mL | > 64 µg/mL | 0.25 µg/mL (≈ 0.538 µM) | 2 µg/mL (≈ 4.31 µM) | 0.25 µg/mL (≈ 0.538 µM) | 0.25 µg/mL (≈ 0.538 µM)
17 | CN(Cc1ccccc1)C(=S)SCC(O)(Cn1cncn1)c1ccc(F)cc1F (racemic) | > 64 µg/mL | > 64 µg/mL | 0.25 µg/mL (≈ 0.575 µM) | 16 µg/mL (≈ 36.8 µM) | 0.5 µg/mL (≈ 1.15 µM) | 1 µg/mL (≈ 2.3 µM) | 0.25 µg/mL (≈ 0.575 µM) | 0.25 µg/mL (≈ 0.575 µM)
